Legend:
[1] = Ultraviolet absorption spectrum; format: physicochemical; details: ethanol solution, 10 ppm, quartz cell, optical path 10 mm
Text: The wavelength at the maximum absorption (λ max) and the molar extinction coefficient (E) were found by measuring ultraviolet absorption spectrum of an ethanol solution of the sample having a concentration of 10 ppm in a quartz cell having an optical path of 10 mm by means of a spectrophotometer (UV-200S, made by SHIMADZU CORPORATION).

[2] = system: skin of a quinea pig; assay: Percutaneous absorption, diffusion cell (Franz); format: in vitro ADME; details: 1 % aqueous solution of sodium salt, 33 C, 20 hours
Protocol: The skin of a quinea pig was peeled, washed with physiological saline and then set in a percutaneous absopriton apparatus which was made in accordance with the description in Franz, T. J, J. Invest, Dermotal 64 , 190, 1975, by means of a diffusion cell. The sample room was filled with […] of a 1 % aqueous solution of sodium salt of the obtained polystyrene derivative, and the acceptor was filled with physiological saline. After maintaining at 33 C for 20 hours while stirring with a magnetic stirrier, the physiological saline in the acceptor was taken out, and the ultraviolet absorbency was measured. As the result, when the polystyrene derivative was used, the absorption curve of the ultraviolet absorption spectrum was similar to that obtained when the physiological saline was solely used as a negative control. When a compound having a lower molecular weight (1 % aqueous solution of sodium salt of p-aminobenzoic acid) was used as a positive control, the compound was observed by the ultraviolet absorption spectrum corresponding to 95 ppm in connection.

Structure (SMILES) | Molar extinction coefficient (ε) [1] | Wavelength at the maximum absorption (λ max) [1] [nm] | compound observed in the acceptor by the ultraviolet absorption spectrum [2] [ppm]
C=Cc1ccc(C(=O)CC(=O)c2ccc(C(=O)OC)cc2)cc1 [4-methyoxycarbonyl-4'-vinyldibenzoylmethane] | 33,000 | 361 | –
C=Cc1ccc(CN(N=Cc2ccc(C(=O)O)cc2)C(=S)NC)cc1 [Example 1, p'-carboxybenzaidehyde 4-methyl-2-p-vinylbenzylthiosemicarbazone] | 33,000 | 331 | –
C=Cc1ccc(CNC(=S)N(C)N=Cc2ccc(C(=O)O)cc2)cc1 [Example 2, p'-carboxybenzaldehyde 2-methyl-4-P-vinylbenzylthiosemicarbazone] | 40,000 | 332 | –
C=Cc1ccc(CN(N=Cc2ccc(C=CC(=O)O)cc2)C(=S)NC)cc1 [Example 3, p'-carboxyvinylenebenzaldehyde 4-methyl-2-p-vinylbenzylthiosemicarbazone] | 60,000 | 348 | –
C=Cc1ccc(CN(N=Cc2ccc(C(=O)O)cc2)C(N)=O)cc1 [Example 4, p'-carboxybenzaldehyde 2-p-vinylbenzylsemicarbazone] | 29,000 | 306 | –
C=Cc1ccc(CN(N=Cc2ccc(C(=O)O)cc2)C(=O)NC)cc1 [Example 5, p'-carboxybenzaldehyde 4-methyl-2-p-vinylbenzylsemicarbazone] | 29,000 | 310 | –
C=Cc1ccc(CN(N=Cc2ccccc2)C(=S)NC)cc1 [Example 6, benzaldehyde 4-methyl-2-p-vinylbenzylthiosemicarbazone] | 33,000 | 317 | –
C=Cc1ccc(CN(N=Cc2ccc(C)cc2)C(=S)NC)cc1 [Example 7, p'-methylbenzaldehyde 4-methyl-2-p-vinylbenzylthiosemicarbazone] | 33,000 | 317 | –
C=Cc1ccc(CN(N=Cc2ccc(N(C)C)cc2)C(=S)NC)cc1 [Example 8, p'-dimethylaminobenzaldehyde 4-methyl-2-p-vinylbenzylthiosemicarbazone] | 38,000 | 358 | –
C=Cc1ccc(CN(N=Cc2ccc(Cl)cc2)C(=S)NC)cc1 [Example 9, p'-chlorobenzaldehyde 4-methyl-2-p-vinylbenzylthiosemicarbazone] | 41,000 | 318 | –
C=Cc1ccc(CN(N=Cc2ccc([N+](=O)[O-])cc2)C(=S)NC)cc1 [Example 10, p'-nitrobenzaldehyde 4-methyl-2-p-vinylbenzylthiosemicarbazone] | 36,000 | 359 | –
C=Cc1ccc(CN(N=Cc2ccco2)C(=S)NC)cc1 [Example 11, 2'-furylaldehyde 4-methyl-2-p-vinylbenzylthiosemicarbazone] | 34,000 | 321 | –
C=Cc1ccc(CN(N=Cc2cccs2)C(=S)NC)cc1 [Example 12, 2'-thienylaldehyde 4-methyl-2-p-vinylbenzylthiosemicarbazone] | 39,000 | 333 | –
C=Cc1ccc(CN(N=Cc2ccncc2)C(=S)NC)cc1 [Example 13, isonicotinic aldehyde 4-methyl-2-p-vinylbenzylthiosemicarbazone] | 36,000 | 325 | –
C=Cc1ccc(CN(N=CC=Cc2ccccc2)C(=S)NC)cc1 [Example 14, cinnamaldehyde 4-methyl-2-p-vinylbenzylthiosemicarbazone] | 46,000 | 335 | –
C=Cc1ccc(C(=O)CC(=O)c2ccc(C(=O)O)cc2)cc1 [Example 57, 4-carboxy-4'-vinyldibenzoylmethane] | 34,000 | 361 | –
Nc1ccc(C(=O)O)cc1 [p-aminobenzoic acid] | – | – | 95

From patent EP0423373A1, “STYRENE DERIVATIVE AND METHOD OF PRODUCTION THEREOF, POLYSTYRENE DERIVATIVE PRODUCED THEREFROM AND METHOD OF PRODUCING THE SAME, AND ULTRAVIOLET ABSORBENT AND COSMETICS CONTAINING SAID POLYSTYRENE DERIVATIVE AS ACTIVE INGREDIENT” (EARTH CHEMICAL CO., LTD., priority 1989, dated 1990)
